Experimental data: article PMC10500568, “Inhibition of MurA Enzyme from Escherichia coli by Flavonoids and Their Synthetic Analogues” (ACS Omega, 2023)
Like-named read-outs stand apart in the source and are kept apart here.

Legend:
MurA enzyme from E. coli [1] = target: T1, MurA enzyme from E. coli (Escherichia coli, UniProt P0A749); experiment: MurA inhibition assay (malachite green, orthophosphate release); assay type: biochemical; settings: for time-dependent inhibition: inactive without preincubation, activity after 30 min of preincubation: 0 min vs 30 min preincubation; for inhibitory activity on MurA in at least one of the three assays: residual activity at 100 μM, threshold 50% RA, no preincubation, 30 min preincubation, or 30 min + DTT; for effect of DTT on inhibition (comparison of RAs): in the presence of DTT
Experimental: To determine the inhibition of MurA, the colorimetric assay with malachite green was used to measure the release of orthophosphate generated during the reaction.[30] […] Time-dependent inhibition assays were also performed by preincubating MurA with the 200 μM UNAG substrate and target compounds for 30 min at 37 °C before starting the reaction with the addition of the second substrate 100 μM PEP, resulting in a final mixture volume of 50 μL. The reaction was stopped after a 15 min incubation at 37 °C by adding the Biomol reagent (100 μL, Enzo Life Sciences, New York), and the absorbance was measured after 5 min at 650 nm using a microplate reader (BioTek, Synergy H4). The final concentration of DMSO in the reaction mixture was 5% (v/v), and 1 μM fosfomycin was used as a reference in the MurA assay. The percentage of residual activity was calculated in comparison to the negative controls, which contained only 5% DMSO. IC50 values were determined by measuring residual activities at 7 different concentrations of the compounds and calculated using GraphPad Prism (GraphPad Software, San Diego, California).
The initial screening of flavonoids was performed under three different assay conditions: (1) without preincubation, (2) with a 30 min preincubation, and (3) with the addition of dithiothreitol (DTT) along with a 30 min preincubation. These different conditions were necessary to understand the mechanism of inhibition of each flavonoid. […] To distinguish whether the adduct formed between the inhibitor and the enzyme was covalent or noncovalent, the inhibitory activity was tested in the presence of 0.1 mM DTT.

E. coli (ATCC 25922) = experiment: Antibacterial assay, broth microdilution MIC; assay type: cell-based, Escherichia coli
Experimental: (§1) To test antimicrobial properties, a broth microdilution method in 96-well plates was used according to Clinical and Laboratory Standards Institute guidelines[31] and European Committee on Antimicrobial Susceptibility Testing ([…]) recommendations.[32] Bacterial suspensions, equivalent to a 0.5 McFarland turbidity standard, were diluted with cation-adjusted Mueller–Hinton broth with TES buffering (ThermoFisher Scientific) to achieve a final inoculum of 10^5 CFU/mL. Compounds dissolved in 100% DMSO at a concentration of 10 mM were mixed with the inoculum and incubated at 35 °C for 20 h.

S. aureus (ATCC 29213) = experiment: Antibacterial assay, broth microdilution MIC; assay type: cell-based, Staphylococcus aureus; settings: for inhibition of S. aureus growth: broth microdilution
Experimental: as §1

MurA enzyme from E. coli [2] = target: T1, MurA enzyme from E. coli; experiment: MurA dilution assay; assay type: biochemical; settings: for RA% (residual activity), dilution assay: compound at 10 times IC50, 30 min preincubation, then 100-fold dilution
Experimental: The enzyme concentration used was the usual concentration in reactivity assays 100-fold (25 μM). After 30 min of preincubation, the mixture was diluted 100-fold, then the previously described reactivity assay was performed using 100 μM PEP.

[3] = 100 μM, 30 min preincubation with addition of DTT (0.1 mM), read-out: RA% (residual activity), 30 min + DTT
[4] = 100 μM, without preincubation, read-out: RA% (residual activity), 0 min
[5] = 30 min preincubation, read-out: IC50, 30 min
[6] = Escherichia coli, ATCC25922, E. coli ATCC 25922, 35 °C, 20 h, read-out: MIC E. coli
[7] = Staphylococcus aureus, ATCC29213, S. aureus ATCC 29213, 35 °C, 20 h, read-out: MIC S. aureus
[8] = without preincubation, read-out: IC50, 0 min

T1 sequence (P0A749 whole entry): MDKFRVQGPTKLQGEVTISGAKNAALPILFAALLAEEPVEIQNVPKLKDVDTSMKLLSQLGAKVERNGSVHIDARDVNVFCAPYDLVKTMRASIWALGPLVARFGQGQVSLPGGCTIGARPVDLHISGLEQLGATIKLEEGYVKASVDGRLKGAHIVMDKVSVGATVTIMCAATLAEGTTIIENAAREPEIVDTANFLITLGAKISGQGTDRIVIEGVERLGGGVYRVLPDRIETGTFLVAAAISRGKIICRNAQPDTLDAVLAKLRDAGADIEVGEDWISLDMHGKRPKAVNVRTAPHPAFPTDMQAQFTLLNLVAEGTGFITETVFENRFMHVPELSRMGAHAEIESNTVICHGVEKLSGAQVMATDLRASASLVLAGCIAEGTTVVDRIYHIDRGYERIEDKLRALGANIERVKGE

Row | Compound | time-dependent inhibition: inactive without preincubation, activity after 30 min of preincubation (MurA enzyme from E. coli [1]; 100 μM) | remaining activity at 100 µM (MurA enzyme from E. coli [1]; [3]) [%] | Hill coefficient, 30 min (MurA enzyme from E. coli [1]; 30 min preincubation) | IC50 (MurA enzyme from E. coli [1]; [5]) [µM] | inhibitory activity on MurA in at least one of the three assays (MurA enzyme from E. coli [1]) | MIC (E. coli (ATCC 25922); [6]) [µM] | MIC (S. aureus (ATCC 29213); [7]) [µM] | RA% (residual activity), dilution assay (MurA enzyme from E. coli [2]) [%] | effect of DTT on inhibition (comparison of RAs) (MurA enzyme from E. coli [1]; 30 min preincubation) | Hill coefficient, 0 min (MurA enzyme from E. coli [1]; without preincubation) | IC50 (MurA enzyme from E. coli [1]; [8]) [µM] | other results
1 | O=c1cc(-c2ccccc2)oc2cc(O)c(O)c(O)c12 [Compound 26, baicalein] | active after 30 min of preincubation | 86 | 1.4 | 61 | showed inhibitory activity | > 250 | 31 | 50 |  |  |  | remaining activity at 100 µM (MurA enzyme from E. coli [1]; [4]): 66%; effect on E. coli growth (E. coli (ATCC 25922); broth microdilution): had no effect; inhibition of S. aureus growth (S. aureus (ATCC 29213)): weak inhibition; inhibitory activity after dilution (MurA enzyme from E. coli [2]; dilution assay): retained some inhibitory activity
2 | O=c1c(O)c(-c2ccc(O)c(O)c2)oc2cc(O)ccc12 [Compound 2, fisetin] |  | 60 | 1.0 | 8.8 | showed inhibitory activity | > 250 | > 250 | 98 | reduced inhibition in the presence of DTT | 1.4 | 91 | 
3 | COc1cc(O)c2c(=O)c(O)c(-c3ccc(O)c(O)c3)oc2c1 [Compound 8, rhamnetin] |  | 58 | 1.1 | 13 | showed inhibitory activity | > 250 | > 250 | 77 | reduced inhibition in the presence of DTT | 1.1 | 96 | 
4 | CN(C)[C@@H]1C(O)=C(C(N)=O)C(=O)[C@@]2(O)C(O)=C3C(=O)c4c(O)cccc4[C@@](C)(O)[C@H]3C[C@@H]12 [tetracycline, reference compound] |  |  |  |  |  |  |  |  |  |  |  | MIC (E. coli (ATCC 25922); Escherichia coli, ATCC25922, E. coli ATCC 25922, read-out: MIC E. coli (positive control)): 1 µg/mL; MIC (S. aureus (ATCC 29213); Staphylococcus aureus, ATCC29213, S. aureus ATCC 29213, read-out: MIC S. aureus (positive control)): 0.5 µg/mL
5 | O=c1c(O)c(-c2ccc(O)c(O)c2)oc2cc(O)cc(O)c12 [Compound 9, quercetin] |  | 46 | 1.3 | 9.3 | showed inhibitory activity | > 250 | > 250 | 93 | reduced inhibition in the presence of DTT | 0.8 | 14 | 
6 | O=C1c2c(O)cc(O)cc2O[C@H](c2cc(O)c(O)c(O)c2)[C@H]1O [Compound 49, ampelopsin] |  | 101 | 0.8 | 0.48 | showed inhibitory activity | > 250 | 125 | 100 |  | 0.8 | 36 | Hill coefficient (dose-response curves at 0 and 30 min) (MurA enzyme from E. coli [1]): ~1; inhibition of S. aureus growth (S. aureus (ATCC 29213)): weak inhibition
7 | C[C@@H]1O[C@@H](Oc2c(-c3ccc(O)c(O)c3)oc3cc(O)cc(O)c3c2=O)[C@H](O)[C@H](O)[C@H]1O [Compound 10, quercitrin] | active after 30 min of preincubation | 103 | 1.1 | 33 | showed inhibitory activity |  |  | 88 |  |  |  | remaining activity at 100 µM (MurA enzyme from E. coli [1]; [4]): 66%; MIC (E. coli (ATCC 25922); Escherichia coli, ATCC25922, 20 h, read-out: MIC E. coli): > 250 µM; MIC (S. aureus (ATCC 29213); Staphylococcus aureus, ATCC29213, 20 h, read-out: MIC S. aureus): > 250 µM
8 | myricitrin [Compound 5] |  |  | 0.6 |  | showed inhibitory activity |  |  | 97 |  |  |  | RA% (residual activity), 30 min + DTT (MurA enzyme from E. coli [1]; 100 μM, 30 min preincubation with addition of DTT (0.1 mM)): 106%; RA% (residual activity), 0 min (MurA enzyme from E. coli [1]; 100 μM, without preincubation): 76%; MIC (E. coli (ATCC 25922); E. coli ATCC 25922, 35 °C, 20 h, read-out: MIC E. coli): >250 µM; MIC (S. aureus (ATCC 29213); S. aureus ATCC 29213, 35 °C, 20 h, read-out: MIC S. aureus): >250 µM
9 | O=c1cc(-c2ccccc2)oc2c(O)c(O)ccc12 [Compound 25, 7,8-dihydroxyflavone] |  | 89 | 1.4 | 12.9 | showed inhibitory activity | > 250 | 125 | 100 |  | 2 | 88 | inhibition of S. aureus growth (S. aureus (ATCC 29213)): weak inhibition
10 | Oc1cc(O)c2c(c1)O[C@H](c1ccc(O)c(O)c1)[C@@H](O)[C@H]2O [Compound 35, leucocyanidin] |  | 13 | 2.9 | 28.6 | showed inhibitory activity | > 250 | > 250 |  | reduced inhibition in the presence of DTT | 2.6 | 69 | Hill coefficient (dose-response curves at 0 and 30 min) (MurA enzyme from E. coli [1]): > 2.5
11 | O=C1c2c(O)cc(O)cc2OC(c2ccc(O)c(O)c2)C1O (centres unmarked) [Compound 47, taxifolin] | active after 30 min of preincubation | 105 | 0.5 | 4.5 | showed inhibitory activity | > 250 | > 250 | 93 |  |  |  | remaining activity at 100 µM (MurA enzyme from E. coli [1]; [4]): 98%
12 | O=C1C[C@@H](c2ccccc2)Oc2ccccc21 [Compound 46, flavanone] |  |  |  |  | showed inhibitory activity |  |  |  |  |  |  | 
13 | O=c1c(O)c(-c2cc(O)c(O)c(O)c2)oc2cc(O)cc(O)c12 [Compound 4, myricetin] | active after 30 min of preincubation | 34 | 1.9 |  | showed inhibitory activity | > 250 | > 250 | 84 | reduced inhibition in the presence of DTT | 0.8 |  | 
